Measurements: PubChem BioAssay (NCI)
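Test compounds were applied to cells in 96-well plates for 48 hours at 5 doses. GI50 = concentration required for 50% inhibition of growth. TGI: concentration producing complete growth inhibition.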

What was measured:
Test in all cases: NCI anticancer screen, dose series, 48 h
[1] = test system: HOP-62 NSCLC
[2] = test system: NCI-H23 lung
[3] = test system: RXF 393 renal
[4] = test system: SN12C renal
[5] = test system: CCRF-CEM leukemia
[6] = test system: KM12 colon
[7] = test system: TK-10 renal
[8] = test system: NCI-H226 lung
[9] = test system: SK-MEL-28 melanoma
[10] = test system: SF-268 CNS
[11] = test system: MDA-MB-231 breast
[12] = test system: NCI-H460 lung
[13] = test system: HOP-92 NSCLC
[14] = test system: SF-539 CNS
[15] = test system: HCC-2998 colon
[16] = test system: EKVX NSCLC
[17] = test system: SNB-75 CNS
[18] = test system: SNB-19 CNS
[19] = test system: T-47D breast
[20] = test system: OVCAR-8 ovarian
[21] = test system: SK-MEL-2 melanoma
[22] = test system: HCT-116 colon
[23] = test system: UACC-257 melanoma
[24] = test system: MDA-MB-435
[25] = test system: PC-3 prostate
[26] = test system: UACC-62 melanoma
[27] = test system: HCT-15 colon
[28] = test system: A498 renal
[29] = test system: IGROV1 ovarian
[30] = test system: CAKI-1 renal
[31] = test system: SK-MEL-5 melanoma
[32] = test system: DU-145 prostate
[33] = test system: SF-295 CNS
[34] = test system: MCF7 breast
[35] = test system: HL-60(TB) leukemia
[36] = test system: NCI/ADR-RES ovarian
[37] = test system: A549 NSCLC
[38] = test system: OVCAR-3 ovarian
[39] = test system: SW-620 colon
[40] = test system: MOLT-4 leukemia
[41] = test system: COLO 205 colon
[42] = test system: LOX IMVI melanoma
[43] = test system: UO-31 renal
[44] = test system: HT29 colon
[45] = test system: SK-OV-3 ovarian
[46] = test system: K-562 leukemia
[47] = test system: OVCAR-5 ovarian
[48] = test system: OVCAR-4 ovarian
[49] = test system: ACHN renal
[50] = test system: HS 578T breast
[51] = test system: SR leukemia
[52] = test system: RPMI-8226 leukemia
[53] = test system: MALME-3M melanoma

CCN1CCN(C(=O)[C@]23CC[C@@H](C)[C@H](C)[C@@H]2C2=CC[C@@H]4[C@@]5(C)C/C(=C/c6cccnc6)C(=O)C(C)(C)[C@@H]5CC[C@@]4(C)[C@]2(C)CC3)CC1
GI50 [1]: 2430 nM | TGI [1]: 5860 nM | GI50 [2]: 2130 nM | TGI [2]: 5910 nM | GI50 [3]: 1450 nM | TGI [3]: 2830 nM | GI50 [4]: 1610 nM | TGI [4]: 3010 nM | GI50 [5]: 2780 nM | TGI [5]: 8970 nM | GI50 [6]: 1750 nM | TGI [6]: 3560 nM | GI50 [7]: 2870 nM | TGI [7]: 9400 nM | GI50 [8]: 1890 nM | TGI [8]: 4070 nM | GI50 [9]: 1750 nM | TGI [9]: 3150 nM | GI50 [10]: 1770 nM | TGI [10]: 4020 nM | GI50 [11]: 1750 nM | TGI [11]: 3590 nM | GI50 [12]: 1780 nM | TGI [12]: 3450 nM | GI50 [13]: 1570 nM | TGI [13]: 5730 nM | GI50 [14]: 1660 nM | TGI [14]: 3050 nM | GI50 [15]: 1550 nM | TGI [15]: 3000 nM | GI50 [16]: 2170 nM | TGI [16]: 7320 nM | GI50 [17]: 1570 nM | TGI [17]: 8910 nM | GI50 [18]: 1790 nM | TGI [18]: 3740 nM | GI50 [19]: 2790 nM | TGI [19]: 13400 nM | GI50 [20]: 2320 nM | TGI [20]: 6290 nM | GI50 [21]: 2120 nM | TGI [21]: 4760 nM | GI50 [22]: 1690 nM | TGI [22]: 3550 nM | GI50 [23]: 2210 nM | TGI [23]: 5950 nM | GI50 [24]: 1700 nM | TGI [24]: 3490 nM | GI50 [25]: 1490 nM | TGI [25]: 3850 nM | GI50 [26]: 1510 nM | TGI [26]: 2960 nM | GI50 [27]: 1660 nM | TGI [27]: 3260 nM | GI50 [28]: 1900 nM | TGI [28]: 4050 nM | GI50 [29]: 1890 nM | TGI [29]: 3870 nM | GI50 [30]: 2120 nM | TGI [30]: 11800 nM | GI50 [31]: 1750 nM | TGI [31]: 3140 nM | GI50 [32]: 2080 nM | TGI [32]: 4210 nM | GI50 [33]: 1630 nM | TGI [33]: 3050 nM | GI50 [34]: 1640 nM | TGI [34]: 3420 nM | GI50 [35]: 2080 nM | TGI [35]: 5000 nM | GI50 [36]: 1590 nM | TGI [36]: 3320 nM | GI50 [37]: 3150 nM | TGI [37]: 16800 nM | GI50 [38]: 1650 nM | TGI [38]: 3190 nM | GI50 [39]: 1900 nM | TGI [39]: 4140 nM | GI50 [40]: 2450 nM | TGI [40]: 7380 nM | GI50 [41]: 2190 nM | TGI [41]: 5120 nM | GI50 [42]: 1580 nM | TGI [42]: 3060 nM | GI50 [43]: 1360 nM | TGI [43]: 2650 nM | GI50 [44]: 1930 nM | TGI [44]: 5360 nM | GI50 [45]: 2700 nM | TGI [45]: 9200 nM | GI50 [46]: 2630 nM | TGI [46]: 7440 nM | GI50 [47]: 1540 nM | TGI [47]: 2930 nM | GI50 [48]: 2570 nM | TGI [48]: 7360 nM | GI50 [49]: 2460 nM | TGI [49]: 6450 nM | GI50 [50]: 1910 nM | TGI [50]: 4770 nM | GI50 [51]: 2380 nM | TGI [51]: 7090 nM | GI50 [52]: 2180 nM | TGI [52]: 6350 nM | GI50 [53]: 1400 nM | TGI [53]: 2750 nM
